Like-named read-outs stand apart in the source and are kept apart here.
Key:
[1] = system: Promonocytic cell line (U937); assay: Incubation of CD33+ promonocytic cell line U937 with CA/PCQ, viable cell count; assay type: cell-based
Protocol: Culture of Promonocytic cell line U937. […] This cell line is CD33^+. Incubation of CD33^+ cell line U937 with CA. […] Cells were then washed and counted for viability.

[2] = system: Erythroleukemic cell line (K562); assay: Incubation of CD33- erythroleukemic cell line K562 with CA/PCQ, viable cell count; assay type: cell-based; conditions: for inhibition at 50 µg/mL: K562, 50.0 μg/ml; for inhibition at 100 µg/mL: K562, 100.0 μg/ml
From the text: This cell line was collected from American Type Culture Collection (ATCC), VA, USA. This cell line is […]. […] Cells were then washed and counted for viability.

[3] = system: Molt 4 (T lymphoid cell line); assay: Growth inhibition of T-lymphoid cell line Molt-4 by CA; assay type: cell-based
From the text: Culture of T-Lymphoid cell line Molt-4. This cell line was obtained from American Type culture collection (ATCC), VA, USA and grown in vitro as described for the cell line K562.

Normal PBMC = assay: Growth inhibition of normal individuals' PBMC by CA/PCQ; assay type: cell-based, human; conditions: Homo sapiens; for inhibition at 50 µg/mL: 50.0 μg/ml; for inhibition at 100 µg/mL: 100.0 μg/ml
From the text: Preparation of peripheral blood mononuclear cells (PBMC) from normal individuals. Whole blood was collected and mononuclear cells were separated by Ficoll/Hypaque density gradient centrifugation.

[4] = system: CML patient's leukemic cells; assay: Analysis of cell cycle progression and apoptosis by flow cytometry; assay type: cell-based, human
Protocol: Analysis of cell cycle progression and apoptosis by Flow cytometry PBMC of a CML patient was cultured in RPMI-1640 medium supplemented with 10% […] fetal bovine serum in the presence or absence of CA (100.0 μg/ml) for 48 hr. at 37° C. in 5% CO2. Cells were fixed with 40% ethanol treated with 500 μg/ml Rnase A, and then with 69 μM propidium iodide for analysis of DNA content by Flow Cytometry as described (Mitra et al., Molecular Medicine, 6:527-541, 2000).

leukemic cells = assay: Biological activity (destruction of leukemic cells) of Piper betel fractions and HPLC peaks; assay type: cell-based; conditions: fractions, zones and HPLC peaks of Piper betel leaf extract
Protocol: Collected material was examined for biological activity i.e. destruction of leukemic cells. […] 10 gm of above-mentioned material was loaded on Sephadex LH-20 column and chromatographed with water, water-methanol (1:1) and methanol as eluent. Three different fractions thus obtained from three different solvent systems were separately checked for biological activity. […] The column was equilibrated with methanol-water-acetic acid (23:76:1), flow rate was maintained at 1.0 ml per min and peaks were identified at 280 nm. According to the retention time (RE) different peaks could be divided into three zones, ZA/ZB and ZC (FIG. 1). ZA had 4 major peaks whereas ZB had very small to moderate 10 peaks and ZC had two distinct peaks. It was convenient to observe biological activity of three zones AA, ZB and ZC, which were separately tested on leukemia cells for destructive activity.

[5] = Homo sapiens, 24 h, 1 day, 1 × 10^5 cells per ml per well, read-out: Percentage inhibition of Cell Growth
[6] = Homo sapiens, 48 h, 2 days, 1 × 10^5 cells per ml per well, read-out: Percentage inhibition of Cell Growth
[7] = Homo sapiens, 72 h, 3 days, 1 × 10^5 cells per ml per well, read-out: Percentage inhibition of Cell Growth
[8] = 24 h, Normal PBMC, 1 day, 1 × 10^5 cells per ml per well, read-out: Percentage inhibition of Cell Growth
[9] = 48 h, Normal PBMC, 2 days, 1 × 10^5 cells per ml per well, read-out: Percentage inhibition of Cell Growth
[10] = 72 h, Normal PBMC, 3 days, 1 × 10^5 cells per ml per well, read-out: Percentage inhibition of Cell Growth
[11] = CML patient's leukemic cells, CA 100.0 μg/ml, 2 days

O=C(/C=C/c1ccc(O)c(O)c1)O[C@@H]1C[C@](O)(C(=O)O)C[C@@H](O)[C@H]1O (single isomer, unassigned) [CA, chlorogenic acid or 3-Caffeoyl quinic acid]
inhibition at 20 µg/mL ([1]; Homo sapiens, U-937, U937, 20 μg/ml, 48 hr, 1 × 10^5 cells/ml/well, read-out: Percent inhibition of cell growth after 48 hr of incubation): 90.6% | destruction of cells (in words) ([1]; U937): destroyed | inhibition at 10 µg/mL ([2]; Homo sapiens, 24 h, K562, 10.0 μg/ml, 1 day, 1 × 10^5 cells per ml per well, read-out: Percentage inhibition of Cell Growth): 8% | inhibition at 25 µg/mL ([2]; Homo sapiens, 24 h, K562, 25.0 μg/ml, 1 day, 1 × 10^5 cells per ml per well, read-out: Percentage inhibition of Cell Growth): 20% | inhibition at 50 µg/mL [2, 5]: 28% | inhibition at 100 µg/mL [2, 5]: 84% | inhibition at 10 µg/mL ([2]; Homo sapiens, 48 h, K562, 10.0 μg/ml, 2 days, 1 × 10^5 cells per ml per well, read-out: Percentage inhibition of Cell Growth): 48.1% | inhibition at 25 µg/mL ([2]; Homo sapiens, 48 h, K562, 25.0 μg/ml, 2 days, 1 × 10^5 cells per ml per well, read-out: Percentage inhibition of Cell Growth): 63% | inhibition at 50 µg/mL [2, 6]: 77.8% | inhibition at 100 µg/mL [2, 6]: 98.1% | inhibition at 10 µg/mL ([2]; Homo sapiens, 72 h, K562, 10.0 μg/ml, 3 days, 1 × 10^5 cells per ml per well, read-out: Percentage inhibition of Cell Growth): 85.2% | inhibition at 25 µg/mL ([2]; Homo sapiens, 72 h, K562, 25.0 μg/ml, 3 days, 1 × 10^5 cells per ml per well, read-out: Percentage inhibition of Cell Growth): 92.6% | inhibition at 25 µg/mL ([2]; Homo sapiens, 72 h, K562, 25.0 μg/ml, 3 days, 2×10^5 cells per ml per well, read-out: % Inhibition of cell growth (After 3 days of incubation)): 20% | inhibition at 50 µg/mL [2, 7]: 100% | inhibition at 50 µg/mL ([2]; Homo sapiens, 72 h, 3 days, 2×10^5 cells per ml per well, read-out: % Inhibition of cell growth (After 3 days of incubation)): 28% | inhibition at 100 µg/mL [2, 7]: 100% | inhibition at 10 µg/mL ([2]; Homo sapiens, K562, 10 μg/ml, 48 hr, 1 × 10^5 cells/ml/well, read-out: Percent inhibition of cell growth after 48 hr of incubation): 46.6% | inhibition at 15 µg/mL ([2]; Homo sapiens, K562, 15 μg/ml, 48 hr, 1 × 10^5 cells/ml/well, read-out: Percent inhibition of cell growth after 48 hr of incubation): 93.3% | inhibition at 20 µg/mL ([2]; Homo sapiens, K562, 20 μg/ml, 48 hr, 1 × 10^5 cells/ml/well, read-out: Percent inhibition of cell growth after 48 hr of incubation): 100% | inhibition at 25 µg/mL ([2]; Homo sapiens, K562, 2×10^6/ml/well, 25 μg/ml, read-out: growth inhibition of leukemic cell lines): ≤ 20% | destruction of cells (in words) ([2]; K562): destroyed | destruction of cells (in words) [3]: requires higher dose | inhibition at 50 µg/mL (Normal PBMC; [8]): 6.66% | inhibition at 100 µg/mL (Normal PBMC; [8]): 6.66% | inhibition at 50 µg/mL (Normal PBMC; [9]): 10.3% | inhibition at 100 µg/mL (Normal PBMC; [9]): 17.2% | inhibition at 50 µg/mL (Normal PBMC; [10]): 15.2% | inhibition at 100 µg/mL (Normal PBMC; [10]): 19.5% | inhibition at 25 µg/mL (Normal PBMC; 72 h, Normal individual's PBMC, 25.0 μg/ml, 3 days, 2×10^5 cells per ml per well, read-out: % Inhibition of cell growth (After 3 days of incubation)): 1.03% | inhibition at 50 µg/mL (Normal PBMC; 72 h, Normal individual's PBMC, 3 days, 2×10^5 cells per ml per well, read-out: % Inhibition of cell growth (After 3 days of incubation)): 1.03% | apoptosis by cell-cycle analysis (in words) ([4]; 100.0 μg/ml, two days of culture): caused apoptosis | percentage of cells in (>2n DNA) [4, 11]: 56.35% | percentage of cells in G0/G1 (2n DNA) [4, 11]: 33.13% | percentage of cells in Sub G0/G1 (apoptotic 2n DNA) [4, 11]: 10.64% | biological activity i.e. destruction of leukemic cells (in words) (leukemic cells): Except peak no 6 (Rt 9.16 min) no other peaks had shown detectable activity
